According to article PMC9848282, “Antinociceptive activity of doliroside B” (Pharmaceutical Biology, 2023):
Values joined by “and” are separate entries in the source; they are usually repeats but may differ in a detail not shown here. Identical values can stand only once.

How the values were obtained:
[1] = test system: acetic acid-induced writhing in Kunming mice; assay: Acetic acid-induced writhing test; format: in vivo; details: for ED50: Mus musculus, read-out: ED50 (median effective dose); for effect of NAL on the reduction of writhing number: absence vs presence of NAL 5 mg/kg i.p., MOP 1, IND 10, ASA 100, DB 5, DBDS 5 mg/kg, Figure 4; for fold weaker than DBDS (ED50): writhing test, ED50 compared with DBDS
[2] = test system: hot plate-induced nociception in mice; assay: Eddy's hot plate test; format: in vivo
Procedure: Female Kunming mice (20 ± 2 g) from Chengdu Dossy Experiment Animal Co., Ltd. (Sichuan, China) were used for antinociceptive experiments. These animals were kept under a constant temperature (23 ± 1 °C), humidity (40–70%), airflow speed ([…]) and noise (≤ 60 db), and maintained under a 12 h light-dark cycle. After the experiment is completed, mice were euthanized humanely. All the animal experiments were approved by the Institutional Animal Care and Use Committee of Yunnan Minzu University (permit no. 20200608).
This was performed according to a previously reported procedure (Eddy and Leimbach [1953]). The pain threshold was defined as the duration from the beginning of placing mice on the plate to the mice jumping, licking, or shaking its paws. Because the scrotum of male mice is saggy, which can be stimulated by hot plate, healthy female mice with pain threshold less than 20 s were used for hot plate test. […] After administration of the test compounds, the pain threshold was recorded at 0, 30, 60, 90, and 120 min. Among the tests in the absence and presence of NAL (5 mg/kg), i.p. injection of NAL was performed 10 min before administration of testing compounds. […]

[3] = test system: formalin-induced nociception in mice; assay: Formalin test; format: in vivo
NO production = assay: cells; format: cell-based; details: Mus musculus, RAW264.7; 25 µmol/L (positive control); LPS-stimulated, 24 h
Nav1.2 = Nav1.2 (Homo sapiens, UniProt Q99250); format: cell-based
Sequence of Nav1.2 (Q99250 whole entry): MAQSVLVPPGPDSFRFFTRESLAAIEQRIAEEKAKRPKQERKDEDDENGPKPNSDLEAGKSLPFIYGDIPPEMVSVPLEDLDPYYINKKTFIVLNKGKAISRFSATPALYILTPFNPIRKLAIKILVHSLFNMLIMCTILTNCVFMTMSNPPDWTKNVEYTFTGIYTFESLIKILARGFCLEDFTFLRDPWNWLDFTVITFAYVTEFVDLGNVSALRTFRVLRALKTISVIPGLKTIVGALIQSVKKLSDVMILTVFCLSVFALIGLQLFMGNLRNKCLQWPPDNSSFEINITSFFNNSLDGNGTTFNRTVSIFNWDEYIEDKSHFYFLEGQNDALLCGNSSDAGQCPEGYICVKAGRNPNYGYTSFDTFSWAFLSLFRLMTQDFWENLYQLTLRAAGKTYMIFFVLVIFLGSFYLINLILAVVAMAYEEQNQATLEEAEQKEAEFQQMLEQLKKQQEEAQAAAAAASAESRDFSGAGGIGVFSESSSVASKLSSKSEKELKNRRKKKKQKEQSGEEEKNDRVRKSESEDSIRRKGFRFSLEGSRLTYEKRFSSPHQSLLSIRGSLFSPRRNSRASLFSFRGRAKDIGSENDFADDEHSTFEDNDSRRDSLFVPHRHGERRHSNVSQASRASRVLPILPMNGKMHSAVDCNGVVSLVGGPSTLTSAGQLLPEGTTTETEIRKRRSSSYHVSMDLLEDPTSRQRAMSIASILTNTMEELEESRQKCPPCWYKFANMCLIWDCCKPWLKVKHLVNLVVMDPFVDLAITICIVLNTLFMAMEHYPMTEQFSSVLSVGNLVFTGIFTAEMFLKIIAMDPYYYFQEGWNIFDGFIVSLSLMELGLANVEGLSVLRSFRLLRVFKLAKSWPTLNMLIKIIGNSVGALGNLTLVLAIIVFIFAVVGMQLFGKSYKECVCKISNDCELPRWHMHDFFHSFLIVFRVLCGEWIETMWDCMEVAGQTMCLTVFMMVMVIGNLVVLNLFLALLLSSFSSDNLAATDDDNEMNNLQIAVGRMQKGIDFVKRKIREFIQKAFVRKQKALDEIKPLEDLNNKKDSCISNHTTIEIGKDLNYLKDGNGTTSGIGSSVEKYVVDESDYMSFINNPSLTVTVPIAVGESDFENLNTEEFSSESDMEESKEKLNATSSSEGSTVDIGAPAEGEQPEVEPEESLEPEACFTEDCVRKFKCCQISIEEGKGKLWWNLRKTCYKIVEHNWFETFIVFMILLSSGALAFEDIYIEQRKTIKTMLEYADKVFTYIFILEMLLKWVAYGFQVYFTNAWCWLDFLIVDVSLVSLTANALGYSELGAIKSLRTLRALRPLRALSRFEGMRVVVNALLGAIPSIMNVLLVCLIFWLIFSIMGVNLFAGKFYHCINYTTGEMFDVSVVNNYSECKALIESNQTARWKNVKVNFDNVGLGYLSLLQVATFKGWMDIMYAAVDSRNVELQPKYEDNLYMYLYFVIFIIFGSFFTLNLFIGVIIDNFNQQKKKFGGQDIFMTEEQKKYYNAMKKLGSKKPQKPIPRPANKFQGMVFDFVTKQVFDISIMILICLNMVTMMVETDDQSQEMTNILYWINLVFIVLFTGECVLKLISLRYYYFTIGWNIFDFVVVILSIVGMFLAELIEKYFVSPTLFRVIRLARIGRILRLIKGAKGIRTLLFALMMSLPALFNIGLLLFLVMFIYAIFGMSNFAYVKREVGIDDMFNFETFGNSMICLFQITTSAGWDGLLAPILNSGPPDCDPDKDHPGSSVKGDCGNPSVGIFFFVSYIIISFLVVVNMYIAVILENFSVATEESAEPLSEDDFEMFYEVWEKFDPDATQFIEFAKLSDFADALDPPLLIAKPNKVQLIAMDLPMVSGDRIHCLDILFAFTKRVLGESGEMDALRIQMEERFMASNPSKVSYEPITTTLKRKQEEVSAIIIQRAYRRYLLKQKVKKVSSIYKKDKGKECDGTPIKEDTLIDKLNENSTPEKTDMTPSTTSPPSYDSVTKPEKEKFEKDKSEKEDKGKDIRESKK

TRPV1 channel = TRPV1 channel (Homo sapiens, UniProt Q8NER1); assay: cell-based; format: cell-based
Sequence of TRPV1 channel (Q8NER1 whole entry): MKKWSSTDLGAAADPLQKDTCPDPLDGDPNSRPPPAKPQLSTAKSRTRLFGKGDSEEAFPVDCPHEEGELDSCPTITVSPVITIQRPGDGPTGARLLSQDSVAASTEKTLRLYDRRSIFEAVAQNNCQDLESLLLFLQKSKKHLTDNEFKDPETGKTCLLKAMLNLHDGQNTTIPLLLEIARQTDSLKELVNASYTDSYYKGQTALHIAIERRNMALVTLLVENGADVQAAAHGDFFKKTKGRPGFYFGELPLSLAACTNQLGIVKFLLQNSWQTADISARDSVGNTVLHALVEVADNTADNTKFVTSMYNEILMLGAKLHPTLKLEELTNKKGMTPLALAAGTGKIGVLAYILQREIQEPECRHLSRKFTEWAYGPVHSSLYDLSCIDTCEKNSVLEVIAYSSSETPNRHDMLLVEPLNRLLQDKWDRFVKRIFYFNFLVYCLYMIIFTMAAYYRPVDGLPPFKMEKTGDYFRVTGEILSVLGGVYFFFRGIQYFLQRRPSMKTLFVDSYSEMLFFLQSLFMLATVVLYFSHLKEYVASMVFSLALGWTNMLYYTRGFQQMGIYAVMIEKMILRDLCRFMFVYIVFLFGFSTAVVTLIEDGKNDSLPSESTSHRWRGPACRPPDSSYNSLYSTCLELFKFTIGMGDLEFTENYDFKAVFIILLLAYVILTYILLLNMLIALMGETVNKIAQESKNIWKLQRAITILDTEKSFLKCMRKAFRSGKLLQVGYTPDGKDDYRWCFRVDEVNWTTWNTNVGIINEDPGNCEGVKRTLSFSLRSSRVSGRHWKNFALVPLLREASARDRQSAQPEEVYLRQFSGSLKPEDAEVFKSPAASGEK

[4] = hot plate test, absence vs presence of NAL 5 mg/kg i.p.
[5] = formalin test, absence vs presence of NAL 5 mg/kg i.p., MOP 1, IND 10, ASA 100, DB 20, DBDS 20 mg/kg, Figure 5

## CC(=O)Oc1ccccc1C(=O)O [ASA, Acetylsalicylic acid]
[1]; 100 mg/kg oral, Figure 1(A) experiment
  inhibition of writhing number: 61.2%
[1]; 200 mg/kg, dose-response Figure 1(E)
  inhibition of writhing number: 73.3%
[1]; writhing test in mice
  ED50: 70.1 mg/kg
[1]
  effect of NAL on the reduction of writhing number: Only a minor difference
[2]; 100 mg/kg, absence of NAL, 30 min, Table 2
  Pain threshold: 20.3 ± 5.9 s
[2]; 100 mg/kg, absence of NAL, 60 min, Table 2
  Pain threshold: 19.8 ± 3.2 s
[2]; 100 mg/kg, absence of NAL, 90 min, Table 2
  Pain threshold: 14.1 ± 4.3 s
[2]; 100 mg/kg, 30 min, Table 1
  Pain threshold: 18.6 ± 5.2 s
[2]; 100 mg/kg, 60 min, Table 1
  Pain threshold: 17.8 ± 3.3 s
[2]; 100 mg/kg, 90 min, Table 1
  Pain threshold: 12.9 ± 4.0 s
[2]; 100 mg/kg, 120 min, Table 1
  Pain threshold: 10.6 ± 2.8 s
[2]; [4]
  effect of NAL on the antinociceptive effect: not effectively removed by NAL
[3]; [5]
  effect of NAL on the antinociceptive effect: not effectively removed by NAL
[3]; late phase (15-30 min), 100 mg/kg i.g.
  inhibition of licking time: 64.8%

## COc1ccc2c(c1)c(CC(=O)O)c(C)n2C(=O)c1ccc(Cl)cc1 [IND, indomethacin]
[1]; 10 mg/kg oral, Figure 1(A) experiment
  inhibition of writhing number: 58.7%
[1]; 20 mg/kg, dose-response Figure 1(D)
  inhibition of writhing number: 76.1%
[1]; writhing test in mice
  ED50: 5.91 mg/kg
[1]
  effect of NAL on the reduction of writhing number: Only a minor difference
  fold weaker than DBDS (ED50): approximately 5 fold
[2]; 10 mg/kg, absence of NAL, 0 min, Table 2
  Pain threshold: 12.1 ± 2.9 s
[2]; 10 mg/kg, absence of NAL, 30 min, Table 2
  Pain threshold: 11.7 ± 3.0 s
[2]; 10 mg/kg, absence of NAL, 60 min, Table 2
  Pain threshold: 11.6 ± 2.2 s
[2]; 10 mg/kg, absence of NAL, 90 min, Table 2
  Pain threshold: 10.7 ± 2.1 s
[2]; 10 mg/kg, absence of NAL, 120 min, Table 2
  Pain threshold: 12.0 ± 3.2 s
[2]; 10 mg/kg, 0 min, Table 1
  Pain threshold: 11.3 ± 2.8 s
[2]; 10 mg/kg, 30 min, Table 1
  Pain threshold: 11.7 ± 3.4 s
[2]; 10 mg/kg, 60 min, Table 1
  Pain threshold: 12.5 ± 3.0 s
[2]; 10 mg/kg, 90 min, Table 1
  Pain threshold: 12.1 ± 2.9 s
[2]; 10 mg/kg, 120 min, Table 1
  Pain threshold: 10.9 ± 2.9 s
[2]; [4]
  effect of NAL on the antinociceptive effect: not effectively removed by NAL
[3]; [5]
  effect of NAL on the antinociceptive effect: not effectively removed by NAL
[3]; late phase (15-30 min), 10 mg/kg i.g.
  inhibition of licking time: 57.3%

## [H]/N=C(/NC)NCCC[C@H](N)C(=O)O [L-NMMA, NG-Monomethyl-L-arginine acetate]
NO production
  inhibition at 25 µM: 73%

## CN1CC[C@]23c4c5ccc(O)c4O[C@H]2[C@@H](O)C=C[C@H]3[C@H]1C5 [MOP, morphine]
[2]; mouse, in vivo
  effect of NAL on the antinociceptive effect: removed by NAL
[3]; mouse, in vivo
  effect of NAL on the antinociceptive effect: removed by NAL
[3]; mouse, in vivo, ip, 1 mg/kg
  inhibition of licking time: 55.3% and 75.9%

## NC1=N[C@H](O)[C@H]2[C@H]3O[C@]4(O)O[C@@H]([C@@H](O)[C@@]2(N1)[C@@H]4O)[C@]3(O)CO [TTX, Tetrodotoxin]
Nav1.2
  IC50: 0.016 ± 0.015 µM

## COc1cc(CNC(=O)CCCC/C=C/C(C)C)ccc1O [capsaicin]
TRPV1 channel; compound alone
  direct effect on TRPV1 activity (compound alone): induced a significant activation

## Oc1cc2c(cc1O)CN(C(=S)NCCc1ccc(Cl)cc1)CCC2 [capsazepine]
TRPV1 channel; TRPV1 inhibitor control
  IC50: 7.3 ± 0.06 µM

## doliroside B [DB]
[1]; 5 mg/kg oral, dose-response Figure 1(B-D)
  inhibition of writhing number: 58.7%
[1]
  effect of NAL on the reduction of writhing number: Only a minor difference
  fold weaker than DBDS (ED50): ~4 fold
[1]; writhing test in mice
  ED50 (median effective dose): 4.68 mg/kg
[2]; 2.5 mg/kg, 0 min, Table 1
  Pain threshold: 12.0 ± 4.4 s
[2]; 2.5 mg/kg, 30 min, Table 1
  Pain threshold: 12.1 ± 3.7 s
[2]; 2.5 mg/kg, 60 min, Table 1
  Pain threshold: 12.7 ± 4.4 s
[2]; 2.5 mg/kg, 90 min, Table 1
  Pain threshold: 14.2 ± 4.7 s
[2]; 2.5 mg/kg, 120 min, Table 1
  Pain threshold: 12.4 ± 3.4 s
[2]; 5 mg/kg, 0 min, Table 1
  Pain threshold: 11.4 ± 2.9 s
[2]; 5 mg/kg, 30 min, Table 1
  Pain threshold: 12.0 ± 3.4 s
[2]; 5 mg/kg, 60 min, Table 1
  Pain threshold: 10.2 ± 2.9 s
[2]; 5 mg/kg, 90 min, Table 1
  Pain threshold: 12.6 ± 3.6 s
[2]; 5 mg/kg, 120 min, Table 1
  Pain threshold: 10.9 ± 3.7 s
[2]; 10 mg/kg, 0 min, Table 1
  Pain threshold: 10.4 ± 3.0 s
[2]; 10 mg/kg, 30 min, Table 1
  Pain threshold: 14.6 ± 4.9 s
[2]; 10 mg/kg, 60 min, Table 1
  Pain threshold: 16.4 ± 6.2 s
[2]; 10 mg/kg, 90 min, Table 1
  Pain threshold: 15.6 ± 4.2 s
[2]; 10 mg/kg, 120 min, Table 1
  Pain threshold: 12.6 ± 3.7 s
[2]; 20 mg/kg, absence of NAL, 0 min, Table 2
  Pain threshold: 11.8 ± 3.3 s
[2]; 20 mg/kg, absence of NAL, 30 min, Table 2
  Pain threshold: 19.6 ± 4.2 s
[2]; 20 mg/kg, absence of NAL, 60 min, Table 2
  Pain threshold: 21.7 ± 5.9 s
[2]; 20 mg/kg, absence of NAL, 90 min, Table 2
  Pain threshold: 18.0 ± 5.6 s
[2]; 20 mg/kg, absence of NAL, 120 min, Table 2
  Pain threshold: 15.2 ± 4.6 s
[2]; 20 mg/kg, 0 min, Table 1
  Pain threshold: 11.8 ± 3.3 s
[2]; 20 mg/kg, 30 min, Table 1
  Pain threshold: 18.8 ± 3.6 s
[2]; 20 mg/kg, 60 min, Table 1
  Pain threshold: 19.7 ± 5.3 s
[2]; 20 mg/kg, 90 min, Table 1
  Pain threshold: 18.1 ± 6.3 s
[2]; 20 mg/kg, 120 min, Table 1
  Pain threshold: 13.8 ± 4.2 s
[2]; [4]
  effect of NAL on the antinociceptive effect: not effectively removed by NAL
[3]; [5]
  effect of NAL on the antinociceptive effect: not effectively removed by NAL
